Patent publication US8975398B2, “NAMPT inhibitors” (AbbVie Inc., priority 2012, dated 2015)

Experiments:
[1] = biological target: NAMPT (human, recombinant, C-terminally His-tagged) (Homo sapiens, UniProt P43490); assay: Time-Resolved Fluorescence Resonance Energy Transfer (TR-FRET) Binding Assay of NAMPT; settings: 6.8 nM NAMPT, 200 nM probe, equilibrated 3 hours, absence of substrates
Method: Determination of the utility of compounds having Formula (I) as binders to and inhibitors of NAMPT was performed using Time-Resolved Fluorescence Resonance Energy Transfer (TR-FRET) binding assays.
Time-Resolved Fluorescence Resonance Energy Transfer (TR-FRET) Binding Assay of NAMPT
Test compounds were serially diluted (typically 11 half log dilutions) in neat DMSO to 50× final concentrations prior to dilution with assay buffer (50 mM HEPES (NaOH), pH 7.5, 100 mM NaCl, 10 mM MgCl2, 1 mM DTT, 1% Glycerol) to 3× and 6% DMSO. Six μL were transferred to 384-well low-volume plates (Owens Corning #3673). To this, 12 μL of a 1.5× solution containing enzyme, probe and antibody were added. Final concentrations in the 18 μL, reactions were 1× assay buffer, 2% DMSO, 6.8 nM NAMPT (human, recombinant, C-terminally His-tagged), 200 nM probe (a potent nicotinamide-competitive inhibitor conjugated to Oregon Green 488) and 1 nM Tb-anti-His antibody (Invitrogen #PV5895). Reactions were equilibrated at room temperature for 3 hours prior to reading on an Envision multi-label plate reader (Perkin Elmer; Ex=337 nm, Em=520 and 495 nm). Time-resolved FRET ratios (Em520/Em495) were normalized to controls, plotted as a function of compound concentration and fit with the four-parameter logistic equation to determine IC50s.

[2] = biological target: NAMPT (Homo sapiens, UniProt P43490); assay: Time-Resolved Fluorescence Resonance Energy Transfer (TR-FRET) Binding Assay of NAMPT with PRPP; settings: 2 nM NAMPT, 2 nM probe, 200 uM PRPP and 2.5 mM ATP, equilibrated 16 hours
Method: Time-Resolved Fluorescence Resonance Energy Transfer (TR-FRET) Binding Assay of NAMPT with PRPP
Compound handling and data processing were identical to the assay in the absence of substrates (above). Final concentrations were 1× assay buffer, 2% DMSO, 2 nM NAMPT, 2 nM probe, 1 nM Tb-anti-His antibody (Invitrogen #PV5895), 200 uM PRPP and 2.5 mM ATP. Reactions were equilibrated for 16 hours prior to measurement to allow for potential enzymatic modification of test compounds.

Sequence of NAMPT (human, recombinant, C-terminally His-tagged) (P43490 whole entry): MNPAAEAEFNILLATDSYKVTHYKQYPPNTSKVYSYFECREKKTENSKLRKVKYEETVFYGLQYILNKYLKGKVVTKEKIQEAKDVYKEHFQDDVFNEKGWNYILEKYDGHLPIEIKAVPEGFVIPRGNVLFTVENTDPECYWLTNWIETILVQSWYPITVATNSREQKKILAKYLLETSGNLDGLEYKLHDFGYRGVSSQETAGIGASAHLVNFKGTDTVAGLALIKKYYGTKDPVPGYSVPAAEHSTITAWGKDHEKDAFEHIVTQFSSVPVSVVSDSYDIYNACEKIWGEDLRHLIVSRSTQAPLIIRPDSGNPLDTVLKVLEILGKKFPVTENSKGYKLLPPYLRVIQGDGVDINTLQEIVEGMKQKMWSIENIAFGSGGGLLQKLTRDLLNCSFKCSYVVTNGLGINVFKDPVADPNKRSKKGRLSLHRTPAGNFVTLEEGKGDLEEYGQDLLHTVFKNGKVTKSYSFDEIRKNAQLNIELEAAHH
Sequence of NAMPT (P43490 whole entry): as above

Structure (SMILES) | IC50 [1] [nM] | IC50 [2] [nM]
O=C(Nc1ccc(OC2CCN(C(=O)c3ccoc3)CC2)cc1)C1CN(c2cccnc2)C1 [Example 54, N-(4-{[1-(furan-3-ylcarbonyl)piperidin-4-yl]oxy}phenyl)-1-(pyridin-3-yl)azetidine-3-carboxamide] | 72.1 | 0.806
Cc1ncccc1N1CC(C(=O)Nc2ccc(C3CCN(C(=O)CC4CCCCC4)CC3)cc2)C1 [Example 179, N-{4-[1-(cyclohexylacetyl)piperidin-4-yl]phenyl}-1-(2-methylpyridin-3-yl)azetidine-3-carboxamide] | 99.2 | 70.7
CN(C)CCC(=O)N1CCC(c2ccc(NC(=O)C3CN(c4cccnc4)C3)cc2)CC1 [Example 107, N-{4-[1-(N,N-dimethyl-beta-alanyl)piperidin-4-yl]phenyl}-1-(pyridin-3-yl)azetidine-3-carboxamide] | 163 | 0.169
O=C(Nc1ccc(C2CCN(C(=O)c3ccoc3)CC2)cc1)C1CN(c2cccnc2)C1 [Example 104, N-{4-[1-(furan-3-ylcarbonyl)piperidin-4-yl]phenyl}-1-(pyridin-3-yl)azetidine-3-carboxamide] | 1.2 | 0.193
O=C(Nc1ccc(OC2CCN(C(=O)Cc3cccc(C(F)(F)F)c3)CC2)cc1)C1CN(c2ccnnc2)C1 [Example 305, 1-(pyridazin-4-yl)-N-{4-[(1-{[3-(trifluoromethyl)phenyl]acetyl}piperidin-4-yl)oxy]phenyl}azetidine-3-carboxamide] | 109 | 35
O=C(Nc1ccc(OC2CCN(C(=O)c3nccs3)CC2)cc1)C1CN(c2ccnnc2)C1 [Example 283, 1-(pyridazin-4-yl)-N-(4-{[1-(1,3-thiazol-2-ylcarbonyl)piperidin-4-yl]oxy}phenyl)azetidine-3-carboxamide] | 72.3 | 32.2
CCC(C)CC(=O)N1CCC(c2ccc(NC(=O)C3CN(c4cccnn4)C3)cc2)CC1 (centres unmarked) [Example 323, N-{4-[1-(3-methylpentanoyl)piperidin-4-yl]phenyl}-1-(pyridazin-3-yl)azetidine-3-carboxamide] | 25.3 | 0.885
O=C(Nc1ccc(OC2CN(C(=O)C3CCCO3)C2)cc1)C1CN(c2ccnnc2)C1 (centres unmarked) [Example 262, 1-(pyridazin-4-yl)-N-(4-{[1-(tetrahydrofuran-2-ylcarbonyl)azetidin-3-yl]oxy}phenyl)azetidine-3-carboxamide] | 130 | 34.3
O=C(Nc1ccc(C2CCN(C(=O)c3ccccc3Cl)CC2)cc1)C1CN(c2cccnn2)C1 [Example 350, N-{4-[1-(2-chlorobenzoyl)piperidin-4-yl]phenyl}-1-(pyridazin-3-yl)azetidine-3-carboxamide] | 4.62 | 0.642
Cc1cc(C)cc(CC(=O)N2CCC(c3ccc(NC(=O)C4CN(c5cccnn5)C4)cc3)CC2)c1 [Example 372, N-(4-{1-[(3,5-dimethylphenyl)acetyl]piperidin-4-yl}phenyl)-1-(pyridazin-3-yl)azetidine-3-carboxamide] | 16.6 | 0.633
CC(C)CCC(=O)N1CCC(c2ccc(NC(=O)C3CN(c4cccnc4)C3)cc2)CC1 [Example 116, N-{4-[1-(4-methylpentanoyl)piperidin-4-yl]phenyl}-1-(pyridin-3-yl)azetidine-3-carboxamide] | 26.5 | 0.204
O=C(Nc1ccc(OC2CCN(C(=O)c3ccc(F)cc3F)CC2)cc1)C1CN(c2cccnn2)C1 [Example 229, N-(4-{[1-(2,4-difluorobenzoyl)piperidin-4-yl]oxy}phenyl)-1-(pyridazin-3-yl)azetidine-3-carboxamide] | 48 | 0.584
CCOCC(=O)N1CCC(Oc2ccc(NC(=O)C3CN(c4cccnc4)C3)cc2)CC1 [Example 44, N-(4-{[1-(ethoxyacetyl)piperidin-4-yl]oxy}phenyl)-1-(pyridin-3-yl)azetidine-3-carboxamide] | 138 | 1.01
O=C(Nc1ccc(OC2CCN(C(=O)c3ccccc3F)CC2)cc1)C1CN(c2cccnn2)C1 [Example 228, N-(4-{[1-(2-fluorobenzoyl)piperidin-4-yl]oxy}phenyl)-1-(pyridazin-3-yl)azetidine-3-carboxamide] | 54.6 | 0.911

Now from value to compound:

IC50 [1] [nM] | IC50 [2] [nM] | Structure (SMILES)
1410 | 2.05 | CC(C)C(=O)N1CCC(Oc2ccc(NC(=O)[C@H]3CCN(c4cccnc4)C3)cc2)CC1 [Example 12, (3S)-N-(4-{[1-(2-methylpropanoyl)piperidin-4-yl]oxy}phenyl)-1-(pyridin-3-yl)pyrrolidine-3-carboxamide]
14.6 | 34.4 | O=C(Nc1ccc(C2CCN(C(=O)CC3CCCC3)CC2)cc1)C1CN(c2ccnnc2)C1 [Example 144, N-{4-[1-(cyclopentylacetyl)piperidin-4-yl]phenyl}-1-(pyridazin-4-yl)azetidine-3-carboxamide]
68.2 | 1.14 | O=C(Nc1ccc(OC2CCN(C(=O)C(F)(F)c3ccccc3)CC2)cc1)C1CN(c2cccnn2)C1 [Example 215, N-[4-({1-[difluoro(phenyl)acetyl]piperidin-4-yl}oxy)phenyl]-1-(pyridazin-3-yl)azetidine-3-carboxamide]
12.1 | 18.2 | O=C(Nc1ccc(OC2CN(C(=O)C(F)(F)c3ccccc3)C2)cc1)C1CN(c2ccnnc2)C1 [Example 201, N-[4-({1-[difluoro(phenyl)acetyl]azetidin-3-yl}oxy)phenyl]-1-(pyridazin-4-yl)azetidine-3-carboxamide]
30.8 | 0.457 | COc1cccc(C(=O)N2CCC(c3ccc(NC(=O)C4CN(c5cccnn5)C4)cc3)CC2)c1 [Example 346, N-{4-[1-(3-methoxybenzoyl)piperidin-4-yl]phenyl}-1-(pyridazin-3-yl)azetidine-3-carboxamide]
150 | 0.959 | O=C(Nc1ccc(OC2CCN(C(=O)c3ccsc3)CC2)cc1)C1CN(c2cccnn2)C1 [Example 223, 1-(pyridazin-3-yl)-N-(4-{[1-(thiophen-3-ylcarbonyl)piperidin-4-yl]oxy}phenyl)azetidine-3-carboxamide]
15 | 0.267 | CC(C)C(=O)N1CCC(c2ccc(NC(=O)C3CN(c4cccnc4)C3)cc2)CC1 [Example 30, N-{4-[1-(2-methylpropanoyl)piperidin-4-yl]phenyl}-1-(pyridin-3-yl)azetidine-3-carboxamide]
7.94 | 0.169 | O=C(Nc1ccc(C2CCN(C(=O)CC(F)(F)F)CC2)cc1)C1CN(c2cccnc2)C1 [Example 122, 1-(pyridin-3-yl)-N-{4-[1-(3,3,3-trifluoropropanoyl)piperidin-4-yl]phenyl}azetidine-3-carboxamide]
16.2 | 0.632 | Cc1ccc(C(=O)N2CCC(c3ccc(NC(=O)C4CN(c5cccnn5)C4)cc3)CC2)s1 [Example 377, N-(4-{1-[(5-methylthiophen-2-yl)carbonyl]piperidin-4-yl}phenyl)-1-(pyridazin-3-yl)azetidine-3-carboxamide]
992 | 0.868 | CCCCN1CCC(c2ccc(NC(=O)C3CN(c4cccnc4)C3)cc2)CC1 [Example 91, N-[4-(1-butylpiperidin-4-yl)phenyl]-1-(pyridin-3-yl)azetidine-3-carboxamide]
143 | 48.3 | O=C(Nc1ccc(OC2CCN(C(=O)C3CC3)CC2)cc1)C1CN(c2ccnnc2)C1 [Example 301, N-(4-{[1-(cyclopropylcarbonyl)piperidin-4-yl]oxy}phenyl)-1-(pyridazin-4-yl)azetidine-3-carboxamide]
231 | 45.1 | O=C(Nc1ccc(OC2CCN(C(=O)Cc3ccc(OC(F)(F)F)cc3)CC2)cc1)C1CN(c2ccnnc2)C1 [Example 275, 1-(pyridazin-4-yl)-N-{4-[(1-{[4-(trifluoromethoxy)phenyl]acetyl}piperidin-4-yl)oxy]phenyl}azetidine-3-carboxamide]
20.4 | 0.635 | O=C(Nc1ccc(C2CCN(C(=O)C3CCCCC3)CC2)cc1)C1CN(c2cccnc2)C1 [Example 136, N-{4-[1-(cyclohexylcarbonyl)piperidin-4-yl]phenyl}-1-(pyridin-3-yl)azetidine-3-carboxamide]
64 | 0.635 | O=C(Nc1ccc(C2CCN(C(=O)Cc3ccc(F)cc3)CC2)cc1)C1CN(c2cccnn2)C1 [Example 368, N-(4-{1-[(4-fluorophenyl)acetyl]piperidin-4-yl}phenyl)-1-(pyridazin-3-yl)azetidine-3-carboxamide]
